Measurements published in patent publication US20180117011A1, “ENZALUTAMIDE IN COMBINATION WITH AFURESERTIB FOR THE TREATMENT OF CANCER” (Novartis AG, priority 2013, published 2018).

What was measured:
Type in all cases: cell-based
LNCaP cells [1] = test: Luminescent caspase 3/7 assay in LNCaP cells; conditions: five days, FIG. 3A
Description: (§1) Tumor cells were seeded in 96-well white tissue culture plates in 100 μL growth media (media with 10% FBS) or CSS media (media with 10% charcoal stripped fetal bovine serum). LNCaP cells were seeded at a density of 1,000 cells per well, whereas, VCaP cells were seeded at 7,500 cells per well. Approximately 24 hr after plating, duplicate or triplicate plates of cells were treated with indicated compounds for both luminescent caspase-3/7 and CTG readings. At the end of the 5 days of incubations, half of the plates were lysed and caspase-3/7 activity was measured using the Caspase-Glo® 3/7 Assay (Promega) according to the manufacturer's protocol. Briefly, Caspase-Glo reagent was added to each plate, incubated for at least 45 minutes, and luminescent signal was read on the EnVision Multilabel Plate Reader with a 0.1 sec integration time. The remaining plates were lysed and ATP levels were measured using the CTG assay. The caspase-3/7 signal was normalized to the ATP signal. The normalized values were expressed as a percentage of the control wells.

LNCaP cells [2] = test: Cell proliferation assay (CellTiter-Glo, total cellular ATP); conditions: charcoal-stripped serum, 0.1 nM R1881, 7 days; FIG. 1
Description: Androgen-dependent prostate cancer cell line, LNCaP, were grown in RPMI 1640 culture medium supplemented with 10% charcoal-stripped fetal bovine serum for 24 hours in 96-well tissue culture plates at a density of 1,000 cells per well. Cells were treated with various concentrations of compounds A or B alone and in combination in presence of synthetic androgen (R1881, Sigma-Aldrich, St. Louis, Mo.). After 7 days, total cellular ATP was measured using the CellTiter-Glo Luminescent Cell Viability Assay (Promega, Madison, Wis.) on an EnVision plate reader. Background counts from wells containing no cells were subtracted and the data is presented as a percentage of the DMSO-treated control cells.

VCaP cells = test: Luminescent caspase 3/7 assay in VCaP cells; conditions: 5 days, FIG. 3B
Description: as §1

[3] = system: cell signaling in LNCaP cells; test: Effect on cell signaling (immunoblot assay); conditions: 0.1 nM R1881, 6 hour, FIG. 2
Description: LNCaP cells were grown in RPMI 1640 culture medium supplemented with 10% charcoal-stripped fetal bovine serum for 48 hours in 6-well tissue culture plates at a density of 500,000 cells per well. Cells were treated with the indicated compounds for six hours, washed with PBS, and whole cell lysates were prepared in RIPA buffer (Teknova, Hollister, Calif.). Cell lysates were clarified by centrifugation at 20,000 relative centrifugal force, 4° C., and protein was quantified using the BCA Protein Assay Kit (Pierce, Rockford, Ill.). Equal amounts of protein lysates were separated by SDS-PAGE using a 4-12% Bis-Tris polyacrylamide gel (Life Technologies) and transferred to a nitrocellulose membrane and incubated with antibodies against total and phospho-AKT, phospho-PRAS40, total and phospho-S6, androgen receptor, and FKBP5. Following incubation with primary antibody, blots were washed and incubated with IRDye-800 anti-mouse or IRDye-680 anti-rabbit antibodies for 1 h. Following thorough washing, blots were analyzed using an infrared imaging system (LI-COR).

SMILES | caspase 3/7 activity induction in LNCaP cells (LNCaP cells [1]; Compound A 10 uM, Compound B 1 uM, or both, medium not specified) | caspase 3/7 activity induction in LNCaP cells, media containing charcoal stripped serum (LNCaP cells [1]; CSS media) | caspase 3/7 activity induction in LNCaP cells, growth media (LNCaP cells [1]; growth media (10% FBS)) | LNCaP cell growth (anti-proliferative effect) (LNCaP cells [2]) | caspase 3/7 activity induction in VCaP cells, CSS media (VCaP cells; Compound A 10 uM, CSS media) | caspase 3/7 activity induction in VCaP cells, growth media (VCaP cells; Compound A 10 uM, growth media) | phospho-AKT (T308) ([3]; Compound B 100 or 300 nM alone or with compound A 3 uM) | androgen receptor level ([3]; Compound B 100 or 300 nM) | androgen receptor target gene (FKBP5) expression ([3]; Compound B 100 or 300 nM) | phospho-PRAS40 (AKT downstream substrate) ([3]; Compound B 100 or 300 nM) | phospho-S6 (AKT downstream substrate) ([3]; Compound B 100 or 300 nM) | caspase 3/7 activity induction in VCaP cells, media containing charcoal stripped serum (in words) (VCaP cells; Compound B 1 uM, CSS media) | caspase 3/7 activity induction in VCaP cells, growth media (in words) (VCaP cells; Compound B 1 uM, growth media)
CNC(=O)c1ccc(N2C(=S)N(c3ccc(C#N)c(C(F)(F)F)c3)C(=O)C2(C)C)cc1F [Compound A, 4-(3-(4-Cyano-3-(trifluoromethyl)phenyl)-5,5-dimethyl-4-oxo-2-thioxoimidazolidin-1-yl)-2-fluoro-N-methylbenzamide, reference compound] | no induction | strong induction | strong induction | inhibited | 11 fold | 2 fold | – | – | – | – | – | – | –
Cn1ncc(Cl)c1-c1cc(C(=O)N[C@H](CN)Cc2cccc(F)c2)sc1Cl [Compound B, N-{(1S)-2-amino-1-[(3-fluorophenyl)methyl]ethyl}-5-chloro-4-(4-chloro-1-methyl-1H-pyrazol-5-yl)-2-thiophenecarboxamide] | – | – | – | inhibited | – | – | increased | no significant effect | no significant effect | inhibited | inhibited | not | strong induction
